Experiment [1] concerns DU145 (Prostate Cancer) cells. As to the kind of experiment: Cellular growth assay (MTT), DU145. Format: cell-based. As to conditions: Homo sapiens, DU-145, 40 hr incubation, read-out: DU145 (inhibition of 50% of cellular growth). The procedure: (§1) K562 (Chronic Myeloid Leukemia), PC3 (Prostate Cancer), and DU145 (Prostate Cancer) were obtained from the American Type Culture Collection (ATCC). K562 was grown in RPMI, with 10% FBS with Glutamx added. DU145 cells were cultured in DMED, with 10% FBS and Glutamx and MEM non-essential amino acids added. PC3 cells were grown in F12K medium, with 10% FBS and Glutamx and MEM non-essential amino acids added. All cells were grown at 37° C. in 5% CO2.

Another experiment concerns the target TelJak2 (Homo sapiens, UniProt O60674). As to the kind of experiment: Cellular growth assay (MTT), BaF3 TEL/JAK2 cells. Type of experiment: cell-based. The conditions noted are these: 40 hr incubation, read-out: TelJak2 (inhibition of 50% of cellular growth).
Experiment [2] has as its system K562 (Chronic Myeloid Leukemia) cells. As to the kind of experiment: Cellular growth assay (MTT), K562. The conditions noted are these: Homo sapiens, 40 hr incubation, read-out: K562 (inhibition of 50% of cellular growth). Type of experiment: cell-based. The procedure:
as §1

For experiment [3], the system named is PC3 (Prostate Cancer) cells. As to the kind of experiment: Cellular growth assay (MTT), PC3. Type of experiment: cell-based. The conditions noted are these: Homo sapiens, PC-3, 40 hr incubation, read-out: PC3 (inhibition of 50% of cellular growth). The procedure: as §1
Another experiment has as its system Tubulin. As to the kind of experiment: Tubulin assay (turbidometric microtubule assembly). Format: biochemical. The conditions noted are these: at 50 μM, absorbance at 340 nm, 37° C. The procedure: Turbidometric assays of microtubule assembly were performed by incubating microtubule protein in cuvettes at 37° C. in a thermostatically controlled spectrophotometer measuring the change in absorbance at 340 nm over time. The microtubule protein was incubated with the each test compound at 0° C. and polymerisation was initiated by addition of 1 mM GTP, prior to heating to 37° C.

Another experiment deals with TelJak3 (Homo sapiens, UniProt P52333). As to the kind of experiment: Cellular growth assay (MTT), BaF3 TEL/JAK3 cells. Format: cell-based. The conditions noted are these: 40 hr incubation, read-out: TelJak3 (inhibition of 50% of cellular growth).
TelJak3, sequence (P52333 with tags, fused parts or gaps): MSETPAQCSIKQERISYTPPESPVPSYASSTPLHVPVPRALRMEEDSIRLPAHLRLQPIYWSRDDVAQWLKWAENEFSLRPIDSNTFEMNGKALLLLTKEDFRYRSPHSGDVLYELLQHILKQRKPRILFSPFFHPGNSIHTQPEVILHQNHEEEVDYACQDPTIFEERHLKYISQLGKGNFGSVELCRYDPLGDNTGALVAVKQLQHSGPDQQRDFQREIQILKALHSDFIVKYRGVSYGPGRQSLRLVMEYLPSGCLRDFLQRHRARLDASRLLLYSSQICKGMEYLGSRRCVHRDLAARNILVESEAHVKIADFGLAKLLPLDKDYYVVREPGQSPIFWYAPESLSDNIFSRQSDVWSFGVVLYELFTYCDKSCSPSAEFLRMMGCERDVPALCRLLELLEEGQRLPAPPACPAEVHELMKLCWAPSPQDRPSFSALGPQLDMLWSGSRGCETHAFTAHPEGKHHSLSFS

TelJak2, sequence (O60674 with tags, fused parts or gaps): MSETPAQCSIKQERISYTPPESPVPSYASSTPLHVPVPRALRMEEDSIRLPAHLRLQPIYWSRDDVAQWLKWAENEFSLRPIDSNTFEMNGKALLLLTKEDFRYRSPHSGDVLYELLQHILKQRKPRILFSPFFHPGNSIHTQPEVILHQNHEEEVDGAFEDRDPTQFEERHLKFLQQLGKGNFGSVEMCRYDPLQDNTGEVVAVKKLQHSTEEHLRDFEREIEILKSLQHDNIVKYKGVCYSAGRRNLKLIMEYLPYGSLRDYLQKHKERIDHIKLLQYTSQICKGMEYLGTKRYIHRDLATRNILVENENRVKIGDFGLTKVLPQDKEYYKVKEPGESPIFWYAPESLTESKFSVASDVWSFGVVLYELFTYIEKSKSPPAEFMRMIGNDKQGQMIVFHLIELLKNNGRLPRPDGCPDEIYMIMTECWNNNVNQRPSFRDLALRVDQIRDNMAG

For `CCCC(Nc1cncc(-c2ccc(O)c(OC)c2)n1)c1ccccc1` (stereo not drawn), the IC50 (in experiment [1]; at TelJak2; in experiment [2]; in experiment [3]; at TelJak3) was not above 20 µM throughout. In addition, the “Tubulin (inhibition of tubulin polymerisation)” value in the experiment with Tubulin is given as “+ (inhibited tubulin polymerisation by greater than 50% at 50 μM)”.
Take `CCCC(Nc1cncc(-c2ccc(O)c(OC)c2)n1)c1ccc(F)cc1` (stereo not drawn): the IC50 was not above 20 µM in experiment [1]; not above 20 µM at TelJak2; not above 20 µM in experiment [2]; more than 20 µM in experiment [3]; not above 20 µM at TelJak3. Besides, in the experiment on Tubulin, the “Tubulin (inhibition of tubulin polymerisation)” value is listed as “+ (inhibited tubulin polymerisation by greater than 50% at 50 μM)”.
`CCCC(Nc1cncc(-c2ccc(O)c(OC)c2)n1)c1cc(OC)cc(OC)c1` (stereo not drawn): the IC50 (in experiment [1]; on TelJak2; in experiment [2]; in experiment [3]; on TelJak3) was not above 20 µM throughout. The “Tubulin (inhibition of tubulin polymerisation)” value in the experiment on Tubulin is “+ (inhibited tubulin polymerisation by greater than 50% at 50 μM)”.
With `CCCC(Nc1cncc(-c2ccc(OC)c(OC)c2)n1)c1ccccc1` (stereo not drawn), the IC50 (in experiment [1]; at TelJak2; in experiment [2]; in experiment [3]; at TelJak3) was not above 20 µM each time. Further, the “Tubulin (inhibition of tubulin polymerisation)” value with Tubulin was “+ (inhibited tubulin polymerisation by greater than 50% at 50 μM)”.
As to `CCCC(Nc1cncc(-c2ccc3c(c2)OCO3)n1)c1ccccc1` (stereo not drawn), the IC50 (in experiment [1]; on TelJak2; in experiment [2]; in experiment [3]; on TelJak3) was not above 20 µM each time. Further, the “Tubulin (inhibition of tubulin polymerisation)” value in the experiment on Tubulin is recorded as “+ (inhibited tubulin polymerisation by greater than 50% at 50 μM)”.
Turning to `CCCC(Nc1cncc(-c2ccc(O)c(OC)c2)n1)c1c(F)cccc1Cl` (stereo not drawn), the IC50 (in experiment [1]; at TelJak2; in experiment [2]; in experiment [3]; on TelJak3) was not above 20 µM throughout. The “Tubulin (inhibition of tubulin polymerisation)” value in the experiment with Tubulin was “+ (inhibited tubulin polymerisation by greater than 50% at 50 μM)”.
For the compound `CCCC(Nc1cncc(-c2ccc(O)c(OC)c2)n1)c1ccc(C(F)(F)F)cc1` (stereo not drawn), the IC50 (in experiment [1]; at TelJak2; in experiment [2]; in experiment [3]; on TelJak3) was more than 20 µM throughout. Also, the “Tubulin (inhibition of tubulin polymerisation)” value in the experiment with Tubulin is “− (did not inhibit tubulin polymerisation by 50% at 50 μM)”.
In the case of `CCCC(Nc1cncc(-c2ccc(O)c(OC)c2)n1)c1cccnc1` (stereo not drawn), the IC50 (in experiment [1]; on TelJak2; in experiment [2]; in experiment [3]; at TelJak3) was not above 20 µM in each case. The “Tubulin (inhibition of tubulin polymerisation)” value with Tubulin is recorded as “+ (inhibited tubulin polymerisation by greater than 50% at 50 μM)”.
In the case of `CCC[C@H](Nc1cncc(-c2ccc(O)c(OC)c2)n1)c1cccc(F)c1`, the IC50 (in experiment [1]; on TelJak2; in experiment [2]; in experiment [3]; on TelJak3) was not above 20 µM in each case. Also, the “Tubulin (inhibition of tubulin polymerisation)” value with Tubulin is “+ (inhibited tubulin polymerisation by greater than 50% at 50 μM)”.
Regarding `CCCC(Nc1cncc(-c2ccc(O)c(OC)c2)n1)c1cccc(C(F)(F)F)c1` (stereo not drawn), the IC50 (in experiment [1]; at TelJak2; in experiment [2]; in experiment [3]; on TelJak3) was not above 20 µM throughout. For the same compound, the “Tubulin (inhibition of tubulin polymerisation)” value in the experiment with Tubulin is reported as “+ (inhibited tubulin polymerisation by greater than 50% at 50 μM)”.
As to `COc1cc(-c2cncc(NC(CCN3CCN(C)CC3)c3ccccc3)n2)ccc1O` (stereo not drawn), the IC50 (in experiment [1]; on TelJak2; in experiment [2]; in experiment [3]; on TelJak3) was not above 20 µM each time. Further, the “Tubulin (inhibition of tubulin polymerisation)” value with Tubulin is “+ (inhibited tubulin polymerisation by greater than 50% at 50 μM)”.
